{
  "source": "patent US20210196730A1",
  "about": "“COMPOUND AND USE THEREOF” (priority 2018, published 2021)",
  "key": {"[1]": {"test_system": "pancreatic stellate cells and pancreatic cancer cells co-implanted orthotopic model", "type": "in vivo", "details": "for tumor suppression effect: TP 0.3, Cal 0.35, TP/Cal 0.3/0.35, Callide^NP 0.6 mg/kg, once every two days, 7 times", "method": "Experimental materials: pancreatic stellate cells, pancreatic cancer cells transfected with luciferase; nude mice: strain Blab/C nude, 6-8 weeks old.\nExperimental method: suspensions of pancreatic stellate cells and luciferase-transfected pancreatic cancer cells were mixed uniformly at a ratio of 1:1, and inoculated into the pancreas at a density of 10,000 cells/40 μL with an inoculation volume of 40 μL.\nExperimental process: the two kinds of cells were digested and centrifuged, resuspended with PBS and mixed at a ratio of 1:1, and then the cell mixture was mixed with Matrigel at a ratio of 1:1 and pipetted uniformly. Nude mice underwent relevant operations under the premise of review by the Ethics Committee of Tsinghua University. […], of the uniformly pipetted cell suspension was injected into the pancreas with an insulin needle, the wound was sutured, and a sedative was injected subcutaneously. About one week after the cell injection, each mouse was intraperitoneally injected with 0.1 ml of […] solution. After 10 min, the mice were anesthetized with isoflurane, and an intensity of the fluorescent signal in the pancreas of the mice was detected with a live imaging system for small animal. Subsequently, the mice were randomly divided into groups, 7 mice in each group, and TP (0.3 mg/kg), Cal (0.35 mg/kg), TP/Cal (0.3/0.35 mg/kg), and Callide^NP (0.6 mg/kg) were administrated, respectively, once every two days for a total of 7 times. After each administration, the mice were weighed. After 4 times of administration, the intensity of the fluorescent signal in the pancreas of mice was detected with the live imaging system for small animal. After the administrations were all finished, the intensity of the fluorescent signal in the pancreas of the mice was detected again with the live imaging system for small animal, while recording a survival rate of mice. After the experiment, the tumor tissues of the mice were taken, and an expression of smooth actin and collagen in the tumor tissues was detected by tissue immunofluorescence staining (the experiment results are shown in FIG. 6)."}, "[2]": {"test_system": "pancreatic cancer cell lines MIA PaCa-2, PANC-1, SW1990, and SW1990-GEM", "assay": "Cytotoxicity experiment of Callide (DNA assay method)", "type": "cell-based", "details": "24 h", "method": "Experimental materials: four pancreatic cancer cell lines, i.e., MIA PaCa-2, PANC-1, SW1990, and SW1990-GEM. Whole cell culture medium, microplate reader\nExperimental Method: DNA Assay Method\nExperimental process: pancreatic cancer cells were cultured, digested, resuspended into a cell suspension with medium, and seeded into 96-well plates, with 4000 cells per well. The experimental components are […], i.e., TP group, Cal group, TP and Cal physical mixed group (TP/Cal), Callide-DMSO without esterase group (Callide without PLE), Callide-DMSO with 10 U esterase group (Callide with 10 U PLE), Callide^NP without esterase group (Callide^NP without PLE), and Callide^NP with 10 U esterase group (Callide^NP with 10 U PLE). For each group, 8 concentrations of 5 nM, 10 nM, 20 nM, 40 nM, 80 nM, 100 nM, 200 nM, and 400 nM were prepared, and each concentration was repeated in six wells. After 24 h of administration, the drug solution was removed by suction, washed with PBS twice, added […], analyzed by a microplate reader, and plotted a relative survival rate curve of cells to calculate an IC50 of each compound."}, "[3]": {"test_system": "pancreatic stellate cells and pancreatic cancer cells", "assay": "Smooth actin and collagen in co-cultured pancreatic stellate cells and pancreatic cancer cells (immunofluorescence)", "type": "cell-based, KPC mice", "details": "co-culture 1:1, 24 hours; TP 10 nM, Cal 100 nM, TP/Cal 10/100 nM, Callide^NP 100 nM", "from_the_text": "(§1) Experimental materials: pancreatic stellate cells and pancreatic cancer cells cultured in transgenic mice. Among them, pancreatic cancer cells were transfected with luciferase gene by lentivirus transfection method.\n(§2) Experimental method: in vitro co-culture, immunofluorescence histochemical analysis\n(§3) Experimental process: the tumor tissues were taken from KPC mice that spontaneously developed with tumors, and the tumor tissues were dissected, and primary pancreatic stellate cells and pancreatic cancer cells were isolated by physical in vitro disruption and enzymatic hydrolysis, and cultured.\nPancreatic stellate cells and pancreatic cancer cells were cultured in a 12-well plate at a ratio of 1:1, with a total of 100,000 cells per well, using TP (10 nM), Cal (100 nM), treated with TP/Cal (10/100 nM), and Callide^NP (100 nM), and incubated for 24 hours, and then the contents of smooth actin and collagen of the cells in each well were analyzed with immunofluorescence staining."}, "[4]": {"test_system": "pancreatic stellate cells", "assay": "Smooth actin and collagen in pancreatic stellate cells alone (immunofluorescence)", "type": "cell-based, KPC mice", "details": "24 hours, TP 10 nM, Cal 100 nM, TP/Cal 10/100 nM, Callide^NP 100 nM", "from_the_text": "as §1, §2, §3\nPancreatic stellate cells alone were cultured in a 12-well plate, 100,000 cells per well, treated with TP (10 nM), Cal (100 nM), TP/Cal (10/100 nM), Callide^NP (100 nM) for 24 hours, and then contents of smooth actin and collagen of the cells in each well were analyzed with immunofluorescence staining."}, "MIA PaCa-2 cell line": {"test_system": "MIA PaCa-2 cell line", "assay": "In vivo anti-tumor effect, mouse subcutaneous tumor model based on MIA PaCa-2", "details": "for anti-tumor effect (tumor growth): compared with saline, TP 0.3, Cal 0.3, TP/Cal 0.3/0.35, Callide^NP 0.3 mg/kg (as TP), tail vein once a week", "method": "Experimental Material: MIA PaCa-2 Cell Line\nExperimental method: establishing a mouse subcutaneous tumor model based on the MIA PaCa-2 cell line, and evaluating an inhibitory effect on tumor as well as toxic and side effect of each compound of the experimental group after administration.\nExperimental process: 0.1 ml of MIA PaCa-2 cell suspension was injected into axilla of the mice, and the growth of tumor was monitored. […] Dosages of administration: TP (0.3 mg/kg), Cal (0.3 mg/kg), TP/Cal (0.3/0.35 mg/kg), Callide^NP (0.3 mg/kg, administration dosage after it was theoretically completely degraded to TP), administered via tail vein injection once a week. The tumor size was measured every two days."}, "[5]": {"test_system": "humanized pancreatic cancer tissue", "assay": "In vivo anti-tumor effect, mouse subcutaneous tumor model of humanized pancreatic cancer tissue", "method": "Experimental material: humanized pancreatic cancer tissue\nExperimental method: establishing a mouse subcutaneous tumor model based on humanized pancreatic cancer tissue\nExperimental process: a mouse subcutaneous tumor model of humanized pancreatic cancer tissue was established, TP (0.3 mg/kg) and Callide^NP (0.3 mg/kg, administration dosage after it was theoretically completely degraded to TP) were administrated via tail vein injection, once a day. One week later, the dosage of Callide^NP was increased to 0.6 mg/kg."}, "[6]": {"assay": "Rat PK experiment of Callide^NP (chromatography-mass spectrometry)", "type": "in vivo", "details": "SD rats, Callide^NP 0.3 and 0.6 mg/kg; for concentration of free TP in plasma / plasma half-life: TP 0.3 mg/kg", "method": "Experimental materials: rats, strain SD, 6-9 weeks old. Analytical instruments: Agilent 1290/6460 triple quadrupole mass spectrometer, made in the United States.\nExperimental Method: Chromatography-Mass Spectrometry\nExperimental process: 12 SD rats were randomly divided into 4 groups, with 3 rats in each group. TP (0.3 mg/kg), TP/Cal (0.3/0.35 mg/kg), Callide^NP (0.3 mg/kg), Callide^NP (0.6 mg/kg) were administered respectively. 300 μl of blood of each rat was collected through the orbit at 5 min, 15 min, 30 min, 1 h, 2 h, 4 h, and 8 h, respectively, centrifuged at 10000 rpm at 4° C., and the supernatant plasma was collected. The plasma was extracted with ethyl acetate/water, vortexed, sonicated, centrifuged at 4° C., the supernatant was evaporated to dryness under the protection of nitrogen, and then dissolved in mobile phase acetonitrile/water. After centrifugation, the supernatant was taken and injected."}, "[7]": {"assay": "Toxicity experiment on mice in short- and long-term administration", "details": "mouse, in vivo", "procedure": "Experimental Material: BALB/C Mice\nExperimental method: BALB/C mice were divided into 5 groups, including a saline control group and four drug administration groups of TP, Cal, TP/Cal, and Callide^NP groups. 5 mice in the control group, and 5 mice for each of 3 dosages, i.e., high, medium and low dosages in each experimental group, for a total of 65 mice. Dosages of administration: TP (0.3 mg/kg, 0.6 mg/kg, 1.2 mg/kg); Cal (0.6 mg/kg, 1.2 mg/kg, 1.8 mg/kg); TP/Cal (0.6 mg/kg, 1.2 mg/kg, 1.8 mg/kg); and Callide^NP (0.6 mg/kg, 1.2 mg/kg, 1.8 mg/kg), were administered once a week via tail vein injection."}, "porcine liver esterase": {"test_system": "porcine liver esterase", "assay": "In vitro degradation experiment of Callide (HPLC)", "type": "in vitro ADME", "details": "absence of porcine liver esterase", "method": "Experimental materials: phosphate buffer (PBS, Ph=7.2 to 7.4), porcine liver esterase, high performance liquid chromatography (HPLC)\nExperimental Method: HPLC Method\nExperimental process: 5 microliters of 1 mg/ml Callide (ethanol solution for solubilizing) in 5 ml of PBS buffer with or without porcine liver esterase, and stirred at 37 degrees Celsius for 1 min, 5 min, 10 min, 30 min, 1 h, 2 h, 4 h, 8 h, 12 h, 24 h, 48 h, respectively, 200 microliters of the solution were taken, filtered, and a concentration of Callide or calcipotriol in the solution was determined by HPLC."}},
  "note": "pIC50: −log10 of the molar value. Where two headings read alike, the source gives them in different places.",
  "data": [
    {"smiles": "C=C1/C(=C\\C=C2/CCC[C@@]3(C)C2CCC3[C@@H](C)/C=C/[C@@H](O)C2CC2)C[C@@H](O)C[C@@H]1O", "note": "(some centres unmarked) [Cal, calcipotriol]", "values": [
      {"measurement": "tumor suppression effect", "setting": "[1]", "result": "no tumor suppression effect"},
      {"measurement": "survival rate of mice", "setting": "[1]; compared with the control group", "result": "no significant difference"},
      {"measurement": "fluorescent signal of pancreatic cancer cells", "setting": "[1]; live imaging, compared with the control group", "result": "no significant difference"},
      {"measurement": "killing effect on cancer cells", "setting": "[2]; within the dosage range studied (5 nM to 400 nM)", "result": "no killing effect on cancer cells"},
      {"measurement": "expression levels of related proteins (smooth actin and collagen)", "setting": "[3]", "result": "significantly reduced"},
      {"measurement": "contents of smooth actin and collagen", "setting": "[4]", "result": "decreased"},
      {"measurement": "toxic reactions / adverse states after administration", "setting": "mouse, in vivo", "result": "none of the mice in the Cal group showed the above-mentioned adverse symptoms"},
      {"measurement": "anti-tumor effect (tumor growth)", "setting": "MIA PaCa-2 cell line", "result": "no anti-tumor effect"}
    ]},
    {"smiles": "C=C1/C(=C\\C=C2/CCC[C@@]3(C)C2CCC3[C@@H](C)/C=C/C(OC(=O)CCC(=O)O[C@@H]2[C@@]3(C(C)C)O[C@H]3[C@@H]3O[C@]34[C@]23O[C@H]3C[C@H]2C3=C(CC[C@@]24C)C(=O)OC3)C2CC2)C[C@@H](O)C[C@@H]1O", "note": "(some centres unmarked) [Callide]", "values": [
      {"measurement": "apoptosis of tumor cells", "setting": "[5]; immunohistochemical staining", "result": "accompanied by apoptosis of tumor cells"},
      {"measurement": "fibrin content of the tumor tissue", "setting": "[5]; immunohistochemical staining", "result": "significantly reduced"},
      {"measurement": "average plasma residence time", "setting": "[6]", "result": "prolonged"},
      {"measurement": "concentration of free TP in plasma", "setting": "[6]", "result": "significantly reduced"},
      {"measurement": "plasma half-life", "setting": "[6]", "result": "prolonged"},
      {"measurement": "cell killing effect", "setting": "[2]; with 10 U porcine liver esterase", "result": "produce cell killing effect"},
      {"measurement": "toxic and side effects on cells", "setting": "[2]; without the addition of esterase", "result": "no toxic and side effects on cells"},
      {"measurement": "long-term toxicity compared with TP", "setting": "[7]", "result": "significantly reduced"},
      {"measurement": "degradation of Callide", "setting": "porcine liver esterase; PBS, 37 degrees Celsius", "result": "could not be degraded"},
      {"measurement": "concentration of Callide in the solution", "setting": "porcine liver esterase; time extended to 48 h", "result": "remained unchanged"}
    ]},
    {"smiles": "CC(C)[C@]12O[C@H]1[C@@H]1O[C@]13[C@]1(O[C@H]1C[C@H]1C4=C(CC[C@@]13C)C(=O)OC4)[C@@H]2O", "note": "[TP, triptolide]", "values": [
      {"measurement": "toxicity", "setting": "[1]; TP 0.3 mg/kg", "result": "obvious toxicity"},
      {"measurement": "tumor suppression effect", "setting": "[1]", "result": "insignificant tumor suppression effect"},
      {"measurement": "deaths", "setting": "[1]; after seven administrations, TP 0.3 mg/kg", "result": "one mouse died"},
      {"measurement": "body weight of the mice", "setting": "[1]; mouse, in vivo", "result": "significantly reduced"},
      {"measurement": "inhibitory effect on tumor growth", "setting": "[5]; first week, 0.3 mg/kg once a day via tail vein", "result": "significant inhibitory effect on tumor growth"},
      {"measurement": "concentration of free TP in plasma", "setting": "[6]", "result": "high"},
      {"measurement": "plasma half-life", "setting": "[6]", "result": "short"},
      {"measurement": "pIC50", "setting": "[2]; Pancreatic cancer cell, all four types of pancreatic cancer cells", "result": 7.70},
      {"measurement": "expression levels of related proteins (smooth actin and collagen)", "setting": "[3]", "result": "did not change significantly"},
      {"measurement": "contents of smooth actin and collagen", "setting": "[4]", "result": "not significantly different"},
      {"measurement": "mortality", "setting": "1.8 mg/kg, single administration", "result": "all mice died after a single administration"},
      {"measurement": "morphology of spermatogonia and spermatocytes", "setting": "TP group", "result": "severely damaged"},
      {"measurement": "organs (anatomical results)", "setting": "TP group", "result": "different degrees of necrosis"},
      {"measurement": "relative weight of the testis", "setting": "TP group", "result": "significantly reduced"},
      {"measurement": "body weight", "setting": "especially 1.2 mg/kg of TP", "result": "lost their weight significantly"},
      {"measurement": "skin at the injection site on the tail", "setting": "especially 1.2 mg/kg of TP", "result": "severe skin ulceration"},
      {"measurement": "toxic reactions / adverse states after administration", "setting": "high, medium and low dosages, once a week via tail vein injection", "result": "obvious toxic reactions"},
      {"measurement": "anti-tumor effect (tumor growth)", "setting": "MIA PaCa-2 cell line", "result": "inhibits tumor growth more effectively than Callide^NP"},
      {"measurement": "tumor size relative to other groups", "setting": "MIA PaCa-2 cell line; mouse, in vivo", "result": "smaller than that of the TP/Cal and Callide^NP groups"},
      {"measurement": "tumor weight", "setting": "MIA PaCa-2 cell line; tumors isolated and weighed after dissection", "result": "significantly less weight than the control group"}
    ]}
  ]
}
